This note sets out measurements from patent US6387880B1, “Transdermal N-[N-[5-[4-(aminoiminomethly)phenyl]-1-oxopentyl]-L-α-aspartyl]-L-phenylalainine or its esters and their pharmaceutically acceptable salts” (G.D. Searle & Co., priority 1996, dated 2002).

Molecules are shown by their SMILES. Values joined by “and” are separate entries in the source; they are usually repeats but may differ in a detail not shown here. Equal values may be shown once.

The data set in a line: Transdermal shaved rat model: radiolabelled compound in gel patch, amount recovered in urine and feces. Conditions: for Mg transported in Feces 24 Hrs / Mg transported in Feces 48 Hrs / Mg transported in Feces 72 Hrs / Mg transported in Urine 24 Hrs / Mg transported in Urine 48 Hrs / Mg transported in Urine 72 Hrs / Mg transported Total (feces + urine) / Mg transported Total, Mean: diethyl ester section, transdermal patch; for Mg transported in Feces 24 Hrs / Mg transported in Feces 48 Hrs / Mg transported in Feces 72 Hrs / Mg transported in Urine 24 Hrs / Mg transported in Urine 48 Hrs / Mg transported in Urine 72 Hrs / Mg transported Total (feces + urine): individual rats; for Mg transported Total (feces + urine): 72 Hrs; for Mg transported Total, Mean: mean of 4 rats.

Compound `CCOC(=O)C[C@H](NC(=O)CCCCc1ccc(C(=N)N)cc1)C(=O)N[C@@H](Cc1ccccc1)C(=O)OCC` [N-[N-[5-[4-(aminoiminomethyl)phenyl]-1-oxopentyl]-L-α-aspartyl]-L-phenylalanine, diethyl ester] had an average amount delivered (2.5 cm^2 patch, rat) of 4.6 ± 1.9 mg. Besides, under “Ethanol”, the “Mg transported in Feces 24 Hrs” value is 0.05 Mg and 0.01 Mg (2×) and 0.04 Mg; the “Mg transported in Feces 48 Hrs” value was 3.16 Mg and 2.44 Mg and 4.09 Mg and 1.20 Mg; the “Mg transported in Feces 72 Hrs” value was 1.51 Mg and 2.33 Mg and 1.67 Mg and 0.43 Mg; the “Mg transported in Urine 24 Hrs” value is 0.02 Mg and 0.01 Mg and 0.00 Mg (2×). In addition, under “Ethanol”, the “Mg transported in Urine 48 Hrs” value is 0.27 Mg and 0.12 Mg and 0.16 Mg and 0.13 Mg; the “Mg transported in Urine 72 Hrs” value was 0.42 Mg and 0.19 Mg and 0.11 Mg (2×); the “Mg transported Total (feces + urine)” value was 5.43 Mg and 5.10 Mg and 6.07 Mg and 1.88 Mg; the “Mg transported Total, Mean” value is given as 4.62 Mg. Under “Saline”, the “Mg transported in Feces 24 Hrs” value was 0.48 Mg and 0.67 Mg and 0.02 Mg (2×); the “Mg transported in Feces 48 Hrs” value was 4.59 Mg and 3.88 Mg and 0.61 Mg and 1.21 Mg; the “Mg transported in Feces 72 Hrs” value is 0.84 Mg and 1.17 Mg and 0.49 Mg and 0.67 Mg; the “Mg transported in Urine 24 Hrs” value is 0.19 Mg and 0.17 Mg and 0.00 Mg (2×). Besides, for the setting “Saline”, the “Mg transported in Urine 48 Hrs” value is 0.20 Mg and 0.16 Mg and 0.15 Mg and 0.13 Mg; the “Mg transported in Urine 72 Hrs” value is 0.09 Mg and 0.11 Mg and 0.05 Mg and 0.10 Mg; the “Mg transported Total (feces + urine)” value is 6.39 Mg and 6.16 Mg and 1.32 Mg and 2.09 Mg; the “Mg transported Total, Mean” value was found to be 3.99 Mg.
